According to patent publication US9345245B2, “Synthetic compounds for vegetative ABA responses” (THE REGENTS OF THE UNIVERSITY OF CALIFORNIA, priority 2012, dated 2016):

Experiments:
PYR/PYL receptors = test: Receptor-mediated PP2C inhibition assay, all ABA receptors tested; format: biochemical, Arabidopsis; details: 10 μM; in the presence of all ABA receptors tested
Protocol: HAB1 and PYL proteins were expressed and purified as described previously (Park S Y, et al. (2009) Abscisic Acid Inhibits Type 2C Protein Phosphatases via the PYR/PYL Family of START Proteins. Science 324(5930):1068-1071), with minor modifications. To obtain GST-HAB1, -ABI1 and -ABI2 fusion proteins, the HAB1 cDNA was cloned into pGex-2T whereas ABI1 and ABI2 cDNAs were cloned into the vector pGex-4T-1. Expression was conducted in BL21[DE3]pLysS host cells. Transformed cells were pre-cultured overnight, transferred to LB medium and cultured at 30° C. to culture A600 of 0.5. The culture was then cooled on ice and MnCl2 added to 4 mM and IPTG added to 0.3 mM. After 16 hours incubation at 15° C., cells were harvested and recombinant proteins were purified on glutathione agarose as described previously (Park S Y, et al. (2009). To obtain 6×His-PYL receptor fusion proteins, receptor cDNAs for all 13 ABA receptors were cloned into the vector pET28 and expressed and purified as described previously (Mosquna A, et al. (2011) Potent and selective activation of abscisic acid receptors in vivo by mutational stabilization of their agonist-bound conformation. PNAS 108(51):20838-20843); this yielded soluble and functional protein (assessed using receptor-mediated PP2C inhibition assays) for all receptors except PYL7, PYL11 and PYL12. […]

Arabidopsis seeds = test: Arabidopsis seed germination inhibition; format: in vivo; details: pyr1/pyl1/pyl2/pyl4 quadruple mutant; 5 μM
Protocol: FIG. 5. Novel ABA agonists inhibit germination of Arabidopsis seeds more strongly than pyrabactin. (A) and (B) Comparison of seed germination inhibition by ABA agonists. (C) and (D) the effects of ABA and LC66C6 (also called quinabactin) on Arabidopsis ABA signaling- and biosynthesis-deficient mutants on germination (C) and seedling establishment (D). Seeds were sown on ½×MS agar plate containing chemicals, and were stored at 4° C. for 4 days, then transferred at 22±2° C. Photographs (A and C) and germination (B) or green cotyledon (D) scores were assessed after a 4-day incubation under continuous illumination. […] For Arabidopsis germination and hypocotyl growth inhibition analysis, seeds after-ripened about 4 weeks were surface-sterilized with a solution containing 5% NaClO and 0.05% Tween-20 for 10 minutes, and rinsed with water four times. Sterilized seeds were suspended with 0.1% agar and sowed on the 0.8% solidified agar medium containing ½ Murashige and Skoog (MS) salts (Sigma-Aldrich) in the presence of chemicals and were stored at 4° C. for 4 days, then transferred at 22° C. under the dark or light. Germination was determined after a 4-day incubation, whereas hypocotyl growth was photographed after 6-day incubation.

ABA-responsive genes = test: Quantitative RT-PCR of ABA-responsive genes in Arabidopsis; format: in vivo
Protocol: FIG. 9. LC66C6 induces numerous ABA-responsive genes. […] Ten-day old seedlings were treated with carrier solvent (DMSO) or either 25 μM ABA, pyrabactin or LC66C6 for 8 hours. Total RNA was then prepared labeled and hybridized to ATH1 microarrays. Data plotted are log 2 transformed average expression values for ˜13K probes that were detectable across all experiments. Data shown are averages determined from triplicate biological replicates. (C) and (D) show the expression of a reporter gene in different plant tissues after treatment with vehicle (DMSO), pyrabactin, LC66C6, or (+)-ABA.
Total RNA was isolated using Plant RNA purification reagent (Invitrogen, USA) according to the manufacturer's instructions. cDNA was synthesized from 1 μg of total RNA using the QantiTec reverse transcription kit (Qiagen, USA). Real-time PCR using Maxima® SYBR Green/Fluorescein qPCR Master Mix (Fermentas) was performed with the iQ5 real-time PCR detection system (Bio-Rad, Hercules, Calif.). The relative amounts of target mRNAs were determined using the relative standard curve method and were normalized by relative amount of internal control mRNA. Biological triplicate experiments were performed.

[1] = test system: CYP707A ABA-hydroxylating enzymes; test: Growth and germination in CYP707A overexpressing and cyp707a double mutant plants; format: in vivo, Arabidopsis; details: 40 μM
Source text: FIG. 12. LC66C6 sensitivity is not influenced by the CYP707A ABA-hydroxylating enzymes.

Chlamydomonas = test: Colony growth of Chlamydomonas with and without salinity and osmotic stress; format: in vivo; details: with and without salinity and osmotic stress
Protocol: FIG. 17. The effect of ABA and its agonists in Physcomitrella patens and Chlamydomonas. Protonemal growth images (A) and quantitative analysis (B) of the effects of ABA and agonists on Phsycomitrella patens. Protonema were grown on 200 μM of specific test chemical for 10 days. […] Pyrabactin bleached protonema. (C) The expression of ABA-responsive genes of Physcomitrella patens. Protonema were treated with 200 μM chemical solutions for 3 h. (D) Colony growth of Chlamydomonas on the chemical with salinity stress and osmotic stress. There was no effect of ABA and LC66C6 on the Chlamydomonas growth with and without stresses.

Question: For `CC1=CC(=O)CC(C)(C)C1(O)/C=C/C(C)=C\C(=O)O` (single isomer, unassigned; (+)) [(+)-ABA, Abscisic acid], which “PPC2 enzyme activity of HBA1, ABI1, and ABI2 inhibited” value (PYR/PYL receptors) is on record?
Answer: The value was over 90%.

Question: And the “inhibition of germination in quadruple mutant” value (Arabidopsis seeds)?
Answer: The value was “inhibit germination in the quadruple mutant”.

Question: What about the “induction of MAPKKK18, RD29A, and RD29B mRNAs” value (ABA-responsive genes; Col and Ler ecotypes and pyr1, pyl1, ply2, pyl3 and pyl4 single mutants) of the same compound?
Answer: The value was “induced”.

Question: What about the “expression of ABF3, GBF3, NCED3, and RD29A” value (ABA-responsive genes; Col wild-type plants) of the same compound?
Answer: The value was “induced expression of ABF3, GBF3, NCED3, and RD29A in a dose dependent manner”.

Question: And the “expression of ABF3, GBF3, NCED3, and RD29A” value (ABA-responsive genes; abi1-1 and PYR/PYL quadruple mutant plants)?
Answer: Its value is “induction levels were impaired”.

Question: What about the “inhibition of plant growth and germination in plants that overexpress CYP707A” value ([1]; CYP707AOX vs wild-type) of the same compound?
Answer: Its value is “reduced”.

Question: And the “inhibition of plant growth and germination in cyp707a double mutant” value ([1]; cyp707a double mutant vs wild-type)?
Answer: The value was “enhanced”.

Question: What about the “effect on growth of Chlamydomonas” value (Chlamydomonas) of the same compound?
Answer: Its value is “no effect”.
